“Also recorded” adds a separate entry of the source.
What was measured:
murine lung [1] = assay: Alveolar remodeling / emphysema (mean chord length, lung morphometry); details: for tissue / alveolar remodeling: control or CS-exposed animals
murine lung [2] = assay: BAL inflammation (BAL cell recovery) after PAMP administration in mice breathing room air or exposed to cigarette smoke; type: in vivo; details: for BAL inflammation: interaction with cigarette smoke (CS-exposed vs non-CS animals): CS exposure 2 weeks before and during dosing; for number of cells recovered per ml of BAL fluid: control (non-CS) animals, dose series
Protocol: During the first week they received a half cigarette, twice a day, to allow for acclimation. During the remainder of the exposure they received three cigarettes per day (one cigarette per session/three sessions per day).
(§1) CS exposure was continued during this interval.
Mice were sacrificed using intraperitoneal ketamine/xylazine injection and the trachea was cannulated and perfused with two 0.9 ml aliquots of cold saline. The cellular contents and BAL fluid were separated by centrifugation and the BAL fluid was stored in aliquots at −80° C.

IL-18 = assay: BAL IL-18 ELISA; type: in vivo, mice
Protocol: Mice were euthanized, the trachea was isolated by blunt dissection, and tubing was secured in the airway. Three volumes of 0.6 ml of PBS were then instilled and gently aspirated and pooled. Each BAL fluid sample was centrifuged, and the supernatants were stored in −70° C. until used. Lung lysates were also prepared. The levels of IL-18 were determined using a commercial ELISA kit (R&D Systems) as per the manufacturer's instructions.
as §1
(§2) The levels of BAL IL-18 (MBL, Japan), IL-12/IL-23p40 and IFN-γ (R&D Systems) were determined using commercial ELISA kits as per the manufacturer's instructions.

murine lung [3] = assay: TUNEL evaluation of lung cell apoptosis; type: in vivo, mice
Protocol: End labeling of exposed 3′-OH ends of DNA fragments in paraffin-embedded tissue was undertaken with the TUNEL in situ cell death detection kit AP (Roche Diagnostics) using the instructions provided by the manufacturer. Staining specificity was assessed by comparing the signal that was seen when terminal transferase was included and excluded from the reaction. After staining, a minimum of 20 fields of alveoli were randomly chosen, and 500 nuclei were counted per lung. The labeled cells were expressed as a percentage of total nuclei.
as §1
End labeling of exposed 3′-OH ends of DNA fragments in paraffin embedded tissue was undertaken with the TUNEL in situ cell death detection kit AP (Roche Diagnostics, Indianapolis, Ind.) using the instructions provided by the manufacturer. Staining specificity was assessed by comparing the signal that was seen when terminal transferase was included and excluded from the reaction. After staining, a minimum of 10 fields of alveoli was randomly chosen and 300 nuclei of structural cells were counted per lung. The labeled cells were expressed as a percentage of total nuclei.

IL-12/23 p40 = assay: BAL IL-12/IL-23p40 ELISA; type: in vivo, mice; details: after second dose
Protocol: as §1, §2

IFN-γ = assay: BAL IFN-γ ELISA; type: in vivo, mice; details: for IFN-γ level: after second dose
Protocol: as §1, §2

PKR = assay: Immunoblot of phospho-PKR in whole lung lysates; type: in vivo, mice
Protocol: as §1
Whole lung lysates were prepared and the total protein content of each was measured using the DC protein assay reagents (Bio-Rad Inc.). Equal amounts of sample proteins were fractionated on 4-15% SDS-PAGE gels under reducing conditions and transferred to polyvinylidene difluoride membranes. The membranes were then incubated in blocking buffer (5% w/v nonfat dry milk in TBS/0.05% Tween) for 1 hour at room temperature. The membranes were then incubated with primary antibodies overnight at 4° C., washed three times in TBS/0.05% Tween and incubated for 2 h at room temperature with appropriate secondary antibodies. Immunoreactive signal was detected using a chemiluminescent procedure (ECL Western blotting detection system; Amersham Life Science) according to the manufacturer's instructions.

[4] = system: IL-18, IL-12/23 p40 and Type I and Type II IFNs; assay: Production of IL-18, IL-12/23 p40 and Type I and Type II IFNs in BAL (stated jointly); type: in vivo, mice; details: versus vehicle controls

lipopoly-saccharide [LPS]
tissue / alveolar remodeling (murine lung [1]): no tissue remodeling was observed; also recorded: did not have similar effects | BAL inflammation: interaction with cigarette smoke (CS-exposed vs non-CS animals) (murine lung [2]): not a significant difference | number of cells recovered per ml of BAL fluid (murine lung [2]): dose dependent

CC(C)Cn1cnc2c(N)nc3ccccc3c21 [IMQ, imiquimod]
tissue / alveolar remodeling (murine lung [1]): did not have similar effects

CCNCc1nc2c(N)nc3ccccc3c2n1CC(C)(C)O [GDQ, gardiquimod]
tissue / alveolar remodeling (murine lung [1]): no effect; also recorded: did not have similar effects | BAL inflammation: interaction with cigarette smoke (CS-exposed vs non-CS animals) (murine lung [2]): not significantl | BAL inflammation (murine lung [2]; control animals, 5 μg doses): no effect

poly(I:C)
IL-18 level (IL-18; CS animals, second dose): about 100 pg/ml | IL-18 level (IL-18; both CS and non-CS animals, by week 4): 90 to 100 pg/mL | IL-18 level (IL-18; non-CS animals, second dose): about 20 pg/ml | TUNEL score (murine lung [3]; IL-18Rα+/+, IFN-γ+/+, PKR+/+ animals, CS): about 12% | TUNEL score (murine lung [3]; IL-18Rα+/+, IFN-γ+/+, PKR+/+ animals, room air): about 8% | TUNEL score (murine lung [3]; IL-18Rα−/−, IFN-γ−/− and PKR−/− animals, CS): about 9% | TUNEL value (murine lung [3]; IL-18Rα−/−, IFN-γ−/− and PKR−/− animals, room air): about 6.5% | TUNEL score (murine lung [3]; combined with CS): about 17 | TUNEL score (murine lung [3]; given alone (no CS)): about 8 | IL-12/23 level (IL-12/23 p40; CS animals, relative to non-CS): about twice that | IL-12/23 level (IL-12/23 p40; non-CS animals): about 3000 pg/ml | morphometrically determined alveolar chord length (murine lung [1]; 4 doses in CS-exposed mice): significant increases | increase in alveolar size (murine lung [1]; 4 doses in RA-exposed mice): did not achieve statistical significance | dose at which CS interaction on alveolar/airway remodeling could be appreciated (murine lung [1]; CS-exposed mice): ≥ 15 µg | mean chord length (murine lung [1]; IL-18Rα−/− and IFN-γ−/− animals exposed to CS): about 70 microns | mean chord length (murine lung [1]; PKR (null) animals exposed to CS): about 70 microns | mean chord length (murine lung [1]; PKR+/+ animals exposed to CS): about 85 microns | mean chord length (murine lung [1]; PKR+/+ animals, no CS): about 65 microns | mean chord length (murine lung [1]; PKR−/− animals, no CS): ~62 microns | mean chord length (murine lung [1]; administered and exposed to CS, controls about 55 microns): about 90 microns | mean chord length (murine lung [1]; wild-type, IL-18Rα−/− and IFN-γ−/− animals, no CS): about 60 microns | BAL inflammation: interaction with cigarette smoke (CS-exposed vs non-CS animals) (murine lung [2]): significantly exacerbated; also recorded: synergistic | dose giving significant interaction with CS on inflammation (murine lung [2]; CS-exposed mice): ≥ 15 µg | number of cells recovered per ml of BAL fluid (murine lung [2]): dose dependent | IFN-γ level (IFN-γ; CS animals): about 90 pg/ml | IFN-γ expression (IFN-γ; IL-18Rα−/− animals, CS): about 35 pg/ml | IFN-γ level (IFN-γ; control animals): about 10 pg/ml | IFN-γ expression (IFN-γ; wild-type animals, CS): about 110 pg/ml | IFN-γ expression (IFN-γ; wild-type animals, no CS): about 35 pg/ml | dose at which enhanced PKR activation was observed (PKR; CS-exposed mice): ≥ 15 µg/mL | phospho-PKR expression (PKR; wild-type animals, given alone): modestly up-regulated | phospho-PKR expression / PKR activation (PKR; wild-type animals, with CS exposure): further increase; also recorded: greatly enhanced | stimulation of IL-18, IL-12/23 p40 and Type I and Type II IFNs [4]: potent stimulator

— patent publication US20100247538A1, “IL-18 and Protein Kinase R Inhibition for the Treatment of COPD” (Yale University, priority 2007, published 2010)
